Laboratory results: patent publication US7771736B2, “Glyphosate formulations and their use for the inhibition of 5-enolpyruvylshikimate-3-phosphate synthase” (Monsanto Technology LLC, priority 2002, dated 2010)
Where two headings read alike, the source gives them in different places.

Assays:
[1] = Metal Ion Ca2+; cited from earlier work
[2] = Metal Ion Mg2+; cited from earlier work
maize EPSPS = experiment: enzyme activity of maize EPSPS (HPLC radioassay, S3P and 14C-PEP) with oxalate or citrate in the presence and absence of glyphosate; assay type: biochemical; conditions: for effect on the inhibition of EPSPS by glyphosate (rate of catalytic activity on S3P and PEP): additive with 0, 0.6 or 6 mcM glyphosate, relative rate normalized to zero glyphosate
Description: These examples assessed the enzyme activity of maize EPSPS with increasing concentrations of oxalate (0, 0.06 mcM, 0.3 mcM, 1.5 mcM, 7.5 mcM and 37.5 mcM) in the presence and absence of glyphosate. Three different conditions (0, 0.6 mcM, and 6 mcM glyphosate) were studied. The assay consisted of incubating enzyme (9 mcg/mL final concentration in the assay) with S3P and ^14C-PEP. The conversion of labeled substrate to 5-enol-[^14C]-pyruvylshikimate-3-phosphate was determined by HPLC radioassay.
Initial velocities were calculated by multiplying fractional turnover per unit time by the initial concentration of the labeled substrate. The data are expressed as relative rates of the enzyme, where relative rate is the reaction rate at a given condition normalized to similar reaction with zero glyphosate.

different weed species = experiment: herbicidal efficacy in whole plants / on different weed species; assay type: in vivo; conditions: for enhancement of glyphosate herbicidal efficacy: additive combined with glyphosate, whole plants / weed species
Cryptosporidium parvum = conditions: cited from earlier work
Toxoplasma gondii = conditions: cited from earlier work
Plasmodium falciparum = Plasmodium falciparum (malaria); cited from earlier work

Structure (SMILES)	Log K (Binding Constant) [1]	Log K (Binding Constant) [2]	effect on the inhibition of EPSPS by glyphosate (rate of catalytic activity on S3P and PEP) (maize EPSPS)	effect on the inhibition of EPSPS by glyphosate (rate of catalytic activity on S3P and PEP) (maize EPSPS; listed as oxalate)	inhibitory effect on the enzyme on its own (maize EPSPS; without glyphosate)	herbicidal property by itself (different weed species; additive alone, enzyme studies and whole plant response)	enhancement of glyphosate herbicidal efficacy (different weed species)	growth inhibition of parasite (Cryptosporidium parvum)	growth inhibition of parasite (Toxoplasma gondii)	growth inhibition of parasite (Plasmodium falciparum)
O=C(O)C(=O)O [Oxalic acid, oxalic acid]	2.46	2.76	enhance the inhibition of EPSPS by glyphosate	enhanced the enzyme binding of glyphosate	do not have any inhibitory effect on the enzyme on their own	does not have any herbicidal property	enhance the inhibition of EPSPS by glyphosate as well as its herbicidal efficacy in whole plants	–	–	–
O=C(O)CC(O)(CC(=O)O)C(=O)O [Citric acid, citric acid]	3.45	3.45	did not have any effect on EPSPS inhibition by glyphosate	–	–	–	failed to show enhancement of glyphosate efficacy on different weed species	–	–	–
O=C(O)CNCP(=O)(O)O [glyphosate, N-phosphonomethyl glycine]	–	–	–	–	–	–	–	growth of these parasites can be inhibited	growth of these parasites can be inhibited	growth of these parasites can be inhibited
